Results as given in patent US20230081426A1, “COMPOUNDS AND METHODS FOR KRAS MODULATION AND INDICATIONS THEREFOR” (Plexxikon Inc., priority 2020, published 2023).

Experiments:
[1] = target: T1, G12C-mutant human KRAS (amino acid residues 1-188) (Homo sapiens, UniProt P01116, G12C); experiment: KRAS Binding Disruption Assay (AlphaScreen; biotinylated KRpep-2d analogue or RAF1-RBD), G12C; settings: geometric mean, read-out: KRAS GMean IC50 (uM) MUTATION: G12C
T1 construct: G12D or G12C-mutant human KRAS (amino acid residues 1-188) with FLAG tag; made in house; host or cells: E. coli
Method in brief: (§1)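 Compounds are titrated against 5-20 nM mutant KRAS and 5-20 nM of either a biotinylated KRpep-2d analogue or RAF1-RBD, incubated 1 h at 25° C. Disruption is detected as reduced Alpha signal after 1 h with donor and acceptor beads at 10 μg/mL.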

[2] = target: T2, G12V-mutant human KRAS (amino acid residues 1-188) (Homo sapiens, UniProt P01116, G12V); experiment: KRAS Binding Competition Assay (AlphaScreen; biotinylated KRpep-2d analogue), G12V; settings: geometric mean, read-out: KRAS GMean IC50 (uM) MUTATION: G12V
T2 construct: G12V-mutant human KRAS (amino acid residues 1-188) with FLAG tag was purified from E. coli; made in house; host or cells: E. coli

[3] = target: T3, G12D-mutant human KRAS (amino acid residues 1-188) (Homo sapiens, UniProt P01116, G12D); experiment: KRAS Binding Disruption Assay (AlphaScreen; biotinylated KRpep-2d analogue or RAF1-RBD), G12D; settings: KRAS G12D; geometric mean; read-out: KRAS GMean IC50 (uM) MUTATION: G12D
T3 construct: G12D or G12C-mutant human KRAS (amino acid residues 1-188) with FLAG tag; made in house; host or cells: E. coli
Method in brief: as §1

Measured: IC50

Oc1cc(-c2ccc3c(N4C[C@H]5CC[C@@H](C4)N5)nc(OC[C@@]45CCCN4C[C@H](F)C5)nc3c2F)c2c(Cl)cccc2c1 [P-0510, 4-(4-((1R,5S)-3,8-diazabicyclo[3.2.1]octan-3-yl)-8-fluoro-2-(((2R,7aS)-2-fluorotetrahydro-1H-pyrrolizin-7a(5H)-yl)methoxy)quinazolin-7-yl)-5-chloronaphthalen-2-ol]
0.0001 to 10 µM: all assays above
